Assays:
Assay in all cases: relative viability (nuclei count vs DMSO), 5 days (fraction); higher = more cells survive
BEN = tested on: BEN
In short: (§1)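 Dosing by pin tool came one day after lung cancer cell lines were seeded in 1536-well plates, using either one drug or a fixed anchor-drug dose plus five library-drug doses (not always all listed) in √10 steps. After 5 days, nuclei were counted on 4× images. Relative viability is treated-well nuclei count divided by vehicle-well nuclei count, and values are medians of duplicate plates.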

NCI-H1437 = tested on: NCI-H1437
In short: as §1

COR-L23 = tested on: COR-L23
In short: as §1

HARA = tested on: HARA
In short: as §1

NCI-H2170 = tested on: NCI-H2170
In short: as §1

LK-2 = tested on: LK-2
In short: as §1

PC-14 = tested on: PC-14
In short: as §1

NCI-H3122 = tested on: NCI-H3122
In short: as §1

NCI-H441 = tested on: NCI-H441
In short: as §1

NCI-H1666 = tested on: NCI-H1666
In short: as §1

CAL-12T = tested on: CAL-12T
In short: as §1

NCI-H661 = tested on: NCI-H661
In short: as §1

NCI-H2009 = tested on: NCI-H2009
In short: as §1

EKVX = tested on: EKVX
In short: as §1

NCI-H727 = tested on: NCI-H727
In short: as §1

ABC-1 = tested on: ABC-1
In short: as §1

LU99A = tested on: LU99A
In short: as §1

SW 900 = tested on: SW 900
In short: as §1

201T = tested on: 201T
In short: as §1

NCI-H838 = tested on: NCI-H838
In short: as §1

NCI-H1650 = tested on: NCI-H1650
In short: as §1

COR-L 105 = tested on: COR-L 105
In short: as §1

Question: Which results are given for `NC(=O)Nc1cc(-c2cccc(F)c2)sc1C(=O)N[C@H]1CCCNC1` [AZD7762] + CCNC(=O)c1noc(-c2cc(C(C)C)c(O)cc2O)c1-c1ccc(CN2CCOCC2)cc1 [Luminespib] (partner 0.01 µM)?
Answer: relative viability (BEN; first compound 0.01 µM): 0.16; relative viability (BEN; first compound 0.03162 µM): 0.665; relative viability (BEN; first compound 0.1 µM): 0.188; relative viability (BEN; first compound 0.3162 µM): 0.43; relative viability (BEN; first compound 1 µM): 0.533; relative viability (NCI-H1437; first compound 0.01 µM): 1.17; relative viability (NCI-H1437; first compound 0.03162 µM): 1.18; relative viability (NCI-H1437; first compound 0.1 µM): 1.2; relative viability (NCI-H1437; first compound 0.3162 µM): 1.13; relative viability (NCI-H1437; first compound 1 µM): 0.79; relative viability (COR-L23; first compound 0.01 µM): 0.687; relative viability (COR-L23; first compound 0.03162 µM): 0.653; relative viability (COR-L23; first compound 0.1 µM): 0.568; relative viability (COR-L23; first compound 0.3162 µM): 0.216; relative viability (COR-L23; first compound 1 µM): 0.117; relative viability (HARA; first compound 0.01 µM): 1.02; relative viability (HARA; first compound 0.03162 µM): 0.71; relative viability (HARA; first compound 0.1 µM): 0.604; relative viability (HARA; first compound 0.3162 µM): 0.471; relative viability (HARA; first compound 1 µM): 0.12; relative viability (NCI-H2170; first compound 0.01 µM): 0.644; relative viability (NCI-H2170; first compound 0.03162 µM): 0.666; relative viability (NCI-H2170; first compound 0.1 µM): 0.71; relative viability (NCI-H2170; first compound 0.3162 µM): 0.833; relative viability (NCI-H2170; first compound 1 µM): 0.724; relative viability (LK-2; first compound 0.01 µM): 0.198; relative viability (LK-2; first compound 0.03162 µM): 0.155; relative viability (LK-2; first compound 0.1 µM): 0.215; relative viability (LK-2; first compound 0.3162 µM): 0.164; relative viability (LK-2; first compound 1 µM): 0.167; relative viability (PC-14; first compound 0.01 µM): 0.162; relative viability (PC-14; first compound 0.03162 µM): 0.199; relative viability (PC-14; first compound 0.1 µM): 0.16; relative viability (PC-14; first compound 0.3162 µM): 0.118; relative viability (PC-14; first compound 1 µM): 0.136; relative viability (NCI-H3122; first compound 0.01 µM): 0.0859; relative viability (NCI-H3122; first compound 0.03162 µM): 0.0843; relative viability (NCI-H3122; first compound 0.1 µM): 0.109; relative viability (NCI-H3122; first compound 0.3162 µM): 0.0927; relative viability (NCI-H3122; first compound 1 µM): 0.0813; relative viability (NCI-H441; first compound 0.01 µM): 0.402; relative viability (NCI-H441; first compound 0.03162 µM): 0.489; relative viability (NCI-H441; first compound 0.1 µM): 0.285; relative viability (NCI-H441; first compound 0.3162 µM): 0.436; relative viability (NCI-H441; first compound 1 µM): 0.212; relative viability (NCI-H1666; first compound 0.01 µM): 1.11; relative viability (NCI-H1666; first compound 0.03162 µM): 1.07; relative viability (NCI-H1666; first compound 0.1 µM): 1.18; relative viability (NCI-H1666; first compound 0.3162 µM): 1.03; relative viability (NCI-H1666; first compound 1 µM): 0.97; relative viability (CAL-12T; first compound 0.01 µM): 0.331; relative viability (CAL-12T; first compound 0.03162 µM): 0.397; relative viability (CAL-12T; first compound 0.1 µM): 0.17; relative viability (CAL-12T; first compound 0.3162 µM): 0.147; relative viability (CAL-12T; first compound 1 µM): 0.223; relative viability (NCI-H661; first compound 0.01 µM): 1.01; relative viability (NCI-H661; first compound 0.03162 µM): 1; relative viability (NCI-H661; first compound 0.1 µM): 1.02; relative viability (NCI-H661; first compound 0.3162 µM): 0.971; relative viability (NCI-H661; first compound 1 µM): 0.417; relative viability (NCI-H2009; first compound 0.01 µM): 1.06; relative viability (NCI-H2009; first compound 0.03162 µM): 0.975; relative viability (NCI-H2009; first compound 0.1 µM): 1.12; relative viability (NCI-H2009; first compound 0.3162 µM): 0.935; relative viability (NCI-H2009; first compound 1 µM): 0.663; relative viability (EKVX; first compound 0.01 µM): 0.827; relative viability (EKVX; first compound 0.03162 µM): 0.88; relative viability (EKVX; first compound 0.1 µM): 0.826; relative viability (EKVX; first compound 0.3162 µM): 0.82; relative viability (EKVX; first compound 1 µM): 0.65; relative viability (NCI-H727; first compound 0.01 µM): 0.24; relative viability (NCI-H727; first compound 0.03162 µM): 0.499; relative viability (NCI-H727; first compound 0.1 µM): 0.291; relative viability (NCI-H727; first compound 0.3162 µM): 0.325; relative viability (NCI-H727; first compound 1 µM): 0.279; relative viability (ABC-1; first compound 0.01 µM): 0.545; relative viability (ABC-1; first compound 0.03162 µM): 0.787; relative viability (ABC-1; first compound 0.1 µM): 0.361; relative viability (ABC-1; first compound 0.3162 µM): 0.374; relative viability (ABC-1; first compound 1 µM): 0.305; relative viability (LU99A; first compound 0.01 µM): 0.255; relative viability (LU99A; first compound 0.03162 µM): 0.265; relative viability (LU99A; first compound 0.1 µM): 0.357; relative viability (LU99A; first compound 0.3162 µM): 0.201; relative viability (LU99A; first compound 1 µM): 0.207; relative viability (SW 900; first compound 0.01 µM): 0.182; relative viability (SW 900; first compound 0.03162 µM): 0.18; relative viability (SW 900; first compound 0.1 µM): 0.201; relative viability (SW 900; first compound 0.3162 µM): 0.159; relative viability (SW 900; first compound 1 µM): 0.146; relative viability (201T; first compound 0.01 µM): 1.11; relative viability (201T; first compound 0.03162 µM): 1.07; relative viability (201T; first compound 0.1 µM): 1.06; relative viability (201T; first compound 0.3162 µM): 1.14; relative viability (201T; first compound 1 µM): 0.913; relative viability (NCI-H838; first compound 0.01 µM): 0.277; relative viability (NCI-H838; first compound 0.03162 µM): 0.336; relative viability (NCI-H838; first compound 0.1 µM): 0.199; relative viability (NCI-H838; first compound 0.3162 µM): 0.157; relative viability (NCI-H838; first compound 1 µM): 0.174; relative viability (NCI-H1650; first compound 0.01 µM): 0.191; relative viability (NCI-H1650; first compound 0.03162 µM): 0.175; relative viability (NCI-H1650; first compound 0.1 µM): 0.22; relative viability (NCI-H1650; first compound 0.3162 µM): 0.186; relative viability (NCI-H1650; first compound 1 µM): 0.192; relative viability (COR-L 105; first compound 0.01 µM): 0.743; relative viability (COR-L 105; first compound 0.03162 µM): 0.585; relative viability (COR-L 105; first compound 0.1 µM): 0.696; relative viability (COR-L 105; first compound 0.3162 µM): 0.648; relative viability (COR-L 105; first compound 1 µM): 0.401

— the supplement of paper PMC10307832
